For assay [1], the system named is GSK-3. The settings on record: read-out: concentration that inhibits GSK-3 to half maximal activity; cited from earlier work.
The test system of assay [2] is HeLa cells. The assay is described as follows: Adenovirus infection, Trypan Blue viability cell counts and morphology. The assay is classed as cell-based, human. To be noted: roscovitine-treated versus untreated. The method, then: (§1) Cultured cells lines were seeded on six or twelve well tissue culture plates. When they reached 70-85% confluence, cells were infected with various amounts of recombinant GL adenovirus or control adenovirus. Adenovirus was added to each well in 300 μl medium and incubated for 2 hours at 37° C., 5% CO2. After incubation, 1.5 ml of medium was added and incubated at 37° C., 5% CO2. The medium was changed every day. At various time points post-infection, viable cells were counted using Trypan Blue and the remaining cells were collected and frozen for subsequent glycogen measurements.
Trypan Blue Viability Cell Counts: Trypan Blue (0.4%, Gibco) was used to stain dead and dying cells. Cells were removed from the tissue culture plates with 0.25% Trypsin-EDTA (Gibco #25200-056) and resuspended in 1 ml phosphate buffered saline (PBS). Manual cell counts were performed with a Neubauer hemocytometer.
Roscovitine Studies: Roscovitine (Calbiochem #557362), [2-(R)-(1-ethyl-2-hydroxyethylamino)-6-benzyl amino-9-isopropylpurine], is a potent and selective inhibitor of the cyclin-dependent kinases Cdk2 and Cdc2. Roscovitine stock solution was prepared in dimethylsulfoxide (DMSO) and stored at −20° C. until use. […]
Cell viability after viral infection was assessed using the Trypan Blue exclusion assay. Cells stained with Trypan Blue and viable cells are counted using a Neubauer hemocytometer. […]

The test system of assay [3] is HeLa cells. The assay is described as follows: Glycogen assay (glucoamylase hydrolysis, glucose Trinder reagent). In kind it is cell-based, human. To be noted: uninfected control HeLa cells, 35 μM roscovitine. As for the experimental part: as §1
Glycogen Assay: Enzymatic glycogen hydrolysis to glucose was performed according to Keppler and Decker with some modifications (Keppler and Decker, 1984 in: Methods of Enzymatic Analysis, 3rd ed. (Bergmeyer, H. U. Bergmeyer, J., and Grab, M. Eds.), Vol. 6, pp. 11-18, VCH, New York.). In brief, frozen cell pellets were subjected to three rounds of freezing and thawing to disrupt cell membranes. Cell pellets were resuspended in 200 μl 250 mU glucoamylase in 0.2 M sodium acetate buffer, pH 4.8. Lysates were incubated for two hours at 45° C. with shaking. Lysates were cleared by centrifugation at 2500 rpm for 10 min. […] Glucose was then determined with the glucose Trinder colorometric reagent (Sigma, 315-500). The intensity of the color reaction was measured at 505nm using a Molecular Devices VERSAmax microplate reader. […]

Assay [4] has as its system GSK-3. The settings on record: cited from earlier work.

Take `[Be+2]` [beryllium]: the IC50 in assay [1] is 6 mM.

Consider `CC[C@H](CO)Nc1nc(NCc2ccccc2)c2ncn(C(C)C)c2n1` [roscovitine, 2-(R)-(1-ethyl-2-hydroxyethylamino)-6-benzyl amino-9-isopropylpurine], for which, in assay [2], the “cell viability of AdGL-infected cells” value is given as “significantly decreased”. Moreover, in assay [3], the glycogen accumulation entry is “no significant increases”.

For `[Zn+2]` [zinc], the “concentration at which GSK-3 is inhibited in cell culture” value in assay [4] was 15 mM.

(Values after patent US20050202559A1, “Cancer treatment by metabolic modulations” (priority 2002, published 2005).)
